Test results as given in patent US20070105789A1, “Combinatorial chemotherapy treatment using Na+/K+ ATPase inhibitors” (priority 2004, published 2007).
Where two headings read alike, the source gives them in different places.

Columns and labels:
Na+/K+-ATPase [1] = molecular target: T1, Na+/K+-ATPase (Canis lupus familiaris, UniProt P50997); experiment: Na+/K+-ATPase inhibition; assay type: biochemical, dog
T1 construct: enzyme preparation from dog kidney (Sigma); purchased Sigma; host or cells: dog kidney tissue
Experimental: (§1) Anti-prolerafitive IC50 values were determined by MTS assay using an A549 cell line. Na^+/K^+-ATPase inhibition IC50 values were obtained using enzyme preparation from dog kidney (Sigma).

A549 cell line = experiment: anti-proliferation MTS assay in A549 cell line; assay type: cell-based; settings: Homo sapiens
Experimental: as §1

[2] = molecular target: Na+/K+-ATPase α peptide isoforms; settings: read-out: Kd of ouabain for the four α peptide isoforms; almost all mammalian species; cited from earlier work
[3] = tested on: Panc-1 human pancreatic xenograft; experiment: Panc-1 human pancreatic tumor xenograft in nude mice; assay type: in vivo; settings: for Final Tumor weight Day 25 (Mean): BNC-1 20 mg/ml s.c. osmotic pump, tumor weight in mg
Excerpt: (§2) Female nude mice (nu/nu) between 5 and 6 weeks of age weighing approximately 20 g were implanted subcutaneously (s.c.) by trocar with fragments of human tumors harvested from s.c. grown tumors in nude mice hosts. […] Each group contains 8-10 mice, each of which was ear tagged and followed throughout the experiment.
(§3) The administration of drugs or controls began the day the animals were pair-matched (Day 1). […] Mice were weighed and tumor measurements were obtained using calipers twice weekly, starting Day 1. These tumor measurements were converted to mg tumor weight by standard formula, (W^2×L)/2. The experiment is terminated when the control group tumor size reached an average of about 1 gram. Upon termination, the mice were weighed, sacrificed and their tumors excised. The tumors were weighed and the mean tumor weight per group was calculated.
(§4) The control animals received pumps containing vehicle (50% DMSO in DMEM). The mice treated with standard chemotherapy agent received intra-peritoneal injections of Gemcitabine at 40 mg/kg every 3 days for 4 treatments (q3d×4). Each data point represent average tumor weight (n=8) and error bars indicate SEM.
as §4

A549(ROS) Sentinel Line = experiment: ROS levels by FACS in A549(ROS) cells; assay type: cell-based, human; settings: normoxia, 4 hrs
Experimental: Thirty minutes prior to the termination of incubation period, 2,7-dichlorofluorescin diacetate (CFH-DA, […]) was added to the cells and incubated for the last 30 min at 37° C. The ROS levels were determined by FACS analysis.

[4] = human pharmacokinetics (literature); settings: species not stated
[5] = cited from earlier work
VEGF = VEGF secretion in tumor cells; assay type: cell-based; settings: FIG. 8
[6] = tested on: several different cancer cell lines; experiment: proliferation of cancer cell lines (ouabain IC50); assay type: cell-based; settings: read-out: IC50 across several different cancer cell lines
[7] = tested on: Caki-1 human renal cancer xenograft; assay type: in vivo, nude mice; settings: for % TGI: Caki-1, Day 22; for % TGI / Final Tumor weight Day 22 (Mean): BNC-1 20 mg/ml s.c. pump, Cytoxan 300 or 100 ip; for Final Tumor weight Day 22 (Mean): tumor weight in mg
Excerpt: as §2, §3

[8] = tested on: panel of 10 cancer cell lines; experiment: cytotoxicity against a panel of 10 cancer cell lines; assay type: cell-based; settings: read-out: median IC50
[9] = tested on: A549 human non-small-cell-lung carcinoma; experiment: A549 human non-small-cell-lung carcinoma xenograft in nude mice; settings: for % TGI: A549, Day 38; for Final Tumor weight Day 38 (Mean): A549, tumor weight in mg; for Final Tumor weight Day 38 (Mean) / % Weight Change at Day 38: BNC-1 20 mg/ml s.c. pump, Carboplatin 100 mg/kg ip; for % Weight Change at Day 38: A549 xenograft mice; for signs of tumor at the end of the experiment: A549 xenograft, 8 animals per group
Excerpt: as §2, §3
Carboplatin (qldxl) was injected at 100 mg/kg (Carb).

Na+/K+-ATPase [10] = settings: Erdmann E 1978; cited from earlier work
cats = settings: cited from earlier work
A549 Sentinel Line = experiment: Sentinel Line reporter assay (beta-gal, FACS); assay type: cell-based, human; settings: agent alone, 40 hrs, FACS
Experimental: The expression level of beta-galactosidase gene in sentinel lines was determined by using a fluorescent substrate fluorescein di-B-D-Galactopyranside (FDG, Marker Gene Tech, #M0250) introduced into cells by hypotonic shock. Cleavage by beta-galactosidase results in the production of free fluorescein, which is unable to cross the plasma membrane and is trapped inside the beta-gal positive cells. Briefly, the cells to be analyzed are trypsinized, and resuspended in PBS containing 2 mM FDG (diluted from a 10 mM stock prepared in 8:1:1 mixture of water: ethanol: DMSO). The cells were then shocked for 4 minutes at 37° C. and transferred to FACS tubes containing cold 1×PBS on ice. Samples were kept on ice for 30 minutes and analyzed by FACS in FLI channel.
Sentinel Line cells with beta-galactosidase reporter gene were plated at 1×10^5 cells/10 cm dish. […] After 40 hrs, the cells were trypsinized and the expression level of reporter gene was determined by FDG loading.
The reporter activity was measured by FACS analysis.

HIF-1α = experiment: Western blot using anti-HIF-1α antibody (Example XVI); assay type: cell-based; settings: 1 μM
rats = settings: adult; cited from earlier work
[11] = Panc-1, Gemcitabine 40 mg/kg q3d×4

CC(=O)OC1C=C2CCC3C4=CC[C@H](c5ccc(=O)oc5)[C@@]4(C)CCC3[C@@]2(C)CC1 (some centres unmarked) [BNC-147]
IC50 (Na+/K+-ATPase [1]): 65000 nM | IC50 (A549 cell line): 11500 nM

C[C@@H]1O[C@@H](O[C@H]2C[C@@H](O)[C@]3(CO)[C@H]4[C@H](O)C[C@]5(C)[C@@H](C6=CC(=O)OC6)CC[C@]5(O)[C@@H]4CC[C@]3(O)C2)[C@H](O)[C@H](O)[C@H]1O [BNC-1, ouabain]
Kd [2]: ≤ 1 nM | % TGI ([3]; Panc-1, Day 25, BNC-1 20 mg/ml s.c. pump, Gemcitabine 40 mg/kg q3d×4): 82.15% | Final Tumor weight Day 25 (Mean) [3, 11]: 200 | ROS production (A549(ROS) Sentinel Line): induces ROS production | max. plasma concentration [4]: about 0.03 μg/mL | plasma half-life in human ([5]; according to the literature): about 20 hours | plasma half-life in human, range ([5]; according to the literature): 5 to 50 h | secretion of VEGF in tumor cells (VEGF): directly or indirectly inhibits | IC50 [6]: 15 to 600 nM | toxic serum concentration at day 1 (serum level at MTD) (mice): about 50±21 ng/ml | therapeutic serum concentration required to achieve >60% TGI (steady state, xenograft nude mouse): about 20±15 ng/ml | % TGI [7]: 81.45% | Final Tumor weight Day 22 (Mean) ([7]; Caki-1): 314.9 | IC50 [8]: 78 nM | % TGI [9]: 100.00% | Final Tumor weight Day 38 (Mean) [9]: 0.0 | % Weight Change at Day 38 [9]: 21% | signs of tumor at the end of the experiment [9]: none of the experimental animals showed any signs of tumor | order of Na+/K+-ATPase-inhibition (Na+/K+-ATPase [10]): Ouabain<Digoxin<Proscillaridin | intravenous toxicity (cats): 0.133 mg/kg | toxicity on duodenal administration (cats): 5.3 mg/kg

O=P1(N(CCCl)CCCl)NCCCO1 (centres unmarked) [Cytoxan]
% TGI [7]: 94.48% | % TGI ([7]; listed as Cytoxan100): 54.70% | Final Tumor weight Day 22 (Mean) ([7]; Caki-1): 93.7 | Final Tumor weight Day 22 (Mean) ([7]; Caki-1, listed as Cytoxan100): 769 | TGI ([7]; Caki-1, Cytoxan 100 mg/kg alone, positive control): 92%

O=C1c2c(O)ccc(O)c2C(=O)c2c(NCCNCCO)ccc(NCCNCCO)c21 [mitoxanthrone, mitoxantrone]
reporter activity in Sentinel Lines (A549 Sentinel Line): increases in cell death and reporter activity

C[C@H]1O[C@@H](O[C@H]2[C@@H](O)C[C@H](O[C@H]3[C@@H](O)C[C@H](O[C@H]4CC[C@@]5(C)[C@H](CC[C@@H]6[C@@H]5C[C@@H](O)[C@]5(C)[C@@H](C7=CC(=O)OC7)CC[C@]65O)C4)O[C@@H]3C)O[C@@H]2C)C[C@H](O)[C@@H]1O [Digoxin]
Volume-of-Distribution (VD) ([5]; in vivo): 650 L | IC50 [8]: 37 nM | order of Na+/K+-ATPase-inhibition (Na+/K+-ATPase [10]): Ouabain<Digoxin<Proscillaridin

COc1cc2ncnc(Nc3ccc(F)c(Cl)c3)c2cc1OCCCN1CCOCC1 [Iressa]
reporter activity in Sentinel Lines (A549 Sentinel Line): reduction in reporter activity

C[C@@H]1OC(OC2C=C3CCC4C5=CC[C@H](c6ccc(=O)oc6)[C@@]5(C)CCC4[C@@]3(C)CC2)[C@H](O)[C@H](O)[C@H]1O (some centres unmarked) [BNC-151]
HIF-1α expression (HIF-1α): Significant inhibition | IC50 (Na+/K+-ATPase [1]): 1380 nM | IC50 (A549 cell line): 260 nM

Nc1ccn([C@@H]2O[C@H](CO)[C@@H](O)C2(F)F)c(=O)n1 [Gemcitabine, gemcitabine]
Final Tumor weight Day 25 (Mean) [3, 11]: 701.3 | TGI ([3]; Panc-1, BNC-4 15 mg/ml s.c. pump, Gemcitabine 40 mg/kg q3d×4): 65% | % TGI ([3]; mouse, in vivo): 37.40% | reporter activity in Sentinel Lines (A549 Sentinel Line): elevated reporter activity

CC(=O)O[C@H]1C(=O)[C@@]2(C)[C@H]([C@H](OC(=O)c3ccccc3)[C@]3(O)C[C@H](OC(=O)[C@H](O)[C@@H](NC(=O)c4ccccc4)c4ccccc4)C(C)=C1C3(C)C)[C@]1(OC(C)=O)CO[C@@H]1C[C@@H]2O [paclitaxel]
reporter activity in Sentinel Lines (A549 Sentinel Line): increases in cell death and reporter activity

C[C@H]1O[C@@H](O[C@H]2[C@@H](O)C[C@H](O[C@H]3[C@@H](O)C[C@H](O[C@H]4CC[C@@]5(C)[C@H](CC[C@@H]6[C@@H]5CC[C@]5(C)[C@@H](C7=CC(=O)OC7)CC[C@]65O)C4)O[C@@H]3C)O[C@@H]2C)C[C@H](O)[C@@H]1O [Digitoxin]
LD50 p.o. (rats): 0.1 mg/kg

N.N.O=C([O-])C1(C(=O)[O-])CCC1.[Pt+2] [Carboplatin]
reporter activity in Sentinel Lines (A549 Sentinel Line): increases in cell death and reporter activity | % TGI [9]: 39.50% | Final Tumor weight Day 38 (Mean) [9]: 509.75 | % Weight Change at Day 38 [9]: 16% | signs of tumor at the end of the experiment [9]: developed tumors of significant sizes
